Source: ChEMBL document CHEMBL1121876, “gamma-Aminobutyric acid agonists, antagonists, and uptake inhibitors. Design and therapeutic aspects” (J Med Chem, 1981)

Assays:
[1] = biological target: GABA-A receptor; anion channel; assay: Activation of binding of [3H]diazepam to Gamma-aminobutyric acid receptor; type: protein-complex assay
[2] = biological target: GABA-A receptor; anion channel; assay: In vitro inhibition of [3H]P4S binding to Gamma-aminobutyric acid receptor of human astrocytes
[3] = biological target: GABA-A receptor; anion channel; assay: In vitro inhibition of [3H]-THIP binding to Gamma-aminobutyric acid receptor of human astrocytes
[4] = Inhibition of neuronal GABA uptake; type: functional
[5] = Inhibition of glial GABA uptake; type: functional
[6] = biological target: GABA-A receptor; anion channel; assay: In vitro inhibition of [3H]isoguvacine binding to Gamma-aminobutyric acid receptor of human astrocytes
[7] = biological target: GABA-A receptor; anion channel; assay: In vitro inhibition of [3H]muscimol binding to Gamma-aminobutyric acid receptor of human astrocytes
[8] = biological target: GABA-A receptor; anion channel; assay: In vitro inhibition of [3H]GABA binding to Gamma-aminobutyric acid receptor of human astrocytes

| SMILES | EC50 [1] | IC50 [2] | IC50 [3] | IC50 [4] | IC50 [5] | IC50 [6] | IC50 [7] | IC50 [8] |
| --- | --- | --- | --- | --- | --- | --- | --- | --- |
| C[C@@H](N)/C=C/C(=O)O | > 2000 µM | 670 µM | 88 µM | 160 µM | 500 µM | 84 µM | 145 µM | 148 µM |
| C[C@@H](N)c1cc(O)no1 | 2300 µM | 83 µM | 9.5 µM | > 1000 µM | > 1000 µM | 8.2 µM | 8.9 µM | 19 µM |
| C[C@H](N)c1cc(O)no1 | 230 µM | 5.8 µM | 0.74 µM | > 1000 µM | > 1000 µM | 1.6 µM | 0.51 µM | 0.64 µM |
| C[C@H](N)/C=C/C(=O)O | 390 µM | 21 µM | 2.6 µM | > 5000 µM | > 5000 µM | 2.5 µM | 3.5 µM | 4.1 µM |
| C[C@H](N)CCC(=O)O | 550 µM | 24 µM | 2.9 µM | 750 µM | 1000 µM | 5.2 µM | 2.5 µM | 4.7 µM |
| C[C@@H](N)CCC(=O)O | 410 µM | 21 µM | 2.5 µM | 200 µM | 120 µM | 6.1 µM | 4.3 µM | 5 µM |
